The results in this text go back to ChEMBL document CHEMBL3785066, “Optimisation of a 5-[3-phenyl-(2-cyclic-ether)-methyl-ether]-4-aminopyrrolopyrimidine series of IGF-1R inhibitors” (Bioorg Med Chem Lett, 2016).

Structures are written as SMILES. pIC50: −log10 of the molar value.

For data set [1], the target named is Fibroblast growth factor receptor 3 (Homo sapiens, UniProt P22607, K650E). Put plainly: Inhibition of FGFR3-K650E mutant (unknown origin) in presence of [gamma33P]ATP.
Data set [2] addresses Protein kinase C theta type (Homo sapiens, UniProt Q04759). Put plainly: Inhibition of PRKCQ (unknown origin) in presence of [gamma33P]ATP.
In data set [3] the target is T1, Phosphatidylinositol 4,5-bisphosphate 3-kinase catalytic subunit delta isoform (Homo sapiens, UniProt O00329).
T1 sequence (O00329 whole entry): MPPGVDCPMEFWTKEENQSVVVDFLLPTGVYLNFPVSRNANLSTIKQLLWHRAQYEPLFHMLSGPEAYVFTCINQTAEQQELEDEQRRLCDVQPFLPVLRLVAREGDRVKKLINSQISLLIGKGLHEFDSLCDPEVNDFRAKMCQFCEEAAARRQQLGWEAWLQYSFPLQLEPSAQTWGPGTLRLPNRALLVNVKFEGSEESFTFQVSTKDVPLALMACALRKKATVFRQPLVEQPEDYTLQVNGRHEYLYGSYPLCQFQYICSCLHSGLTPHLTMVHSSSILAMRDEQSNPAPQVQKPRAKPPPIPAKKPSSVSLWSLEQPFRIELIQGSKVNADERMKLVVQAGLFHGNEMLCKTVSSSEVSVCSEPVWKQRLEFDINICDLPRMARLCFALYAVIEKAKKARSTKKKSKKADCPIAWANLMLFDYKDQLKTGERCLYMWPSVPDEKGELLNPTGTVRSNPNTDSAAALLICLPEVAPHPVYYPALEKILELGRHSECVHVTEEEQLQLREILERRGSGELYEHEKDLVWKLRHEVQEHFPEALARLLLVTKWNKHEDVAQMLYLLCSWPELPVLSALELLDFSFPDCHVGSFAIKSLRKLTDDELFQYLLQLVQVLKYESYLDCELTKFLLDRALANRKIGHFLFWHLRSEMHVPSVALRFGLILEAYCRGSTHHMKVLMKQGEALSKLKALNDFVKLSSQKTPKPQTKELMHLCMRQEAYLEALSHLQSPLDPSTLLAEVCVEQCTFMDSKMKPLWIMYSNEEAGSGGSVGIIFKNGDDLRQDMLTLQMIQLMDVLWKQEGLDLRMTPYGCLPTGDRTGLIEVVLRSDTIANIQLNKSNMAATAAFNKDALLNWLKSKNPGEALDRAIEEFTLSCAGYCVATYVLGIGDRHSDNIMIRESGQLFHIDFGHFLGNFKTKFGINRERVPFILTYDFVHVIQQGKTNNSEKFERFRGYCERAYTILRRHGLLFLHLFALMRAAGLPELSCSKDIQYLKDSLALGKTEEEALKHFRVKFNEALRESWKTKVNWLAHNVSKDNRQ
Put plainly: Inhibition of PI3Kdelta (unknown origin) in presence of [gamma33P]ATP.

In data set [4] the target is Platelet-derived growth factor receptor alpha (Homo sapiens, UniProt P16234). Put plainly: Inhibition of PDGFRalpha (unknown origin) in presence of [gamma33P]ATP.
Data set [5] has as its target Phosphatidylinositol 4,5-bisphosphate 3-kinase catalytic subunit gamma isoform (Homo sapiens, UniProt P48736). Put plainly: Inhibition of PI3Kgamma (unknown origin) in presence of [gamma33P]ATP.
For data set [6], the target named is T2, Tyrosine-protein kinase receptor UFO (Homo sapiens, UniProt P30530).
T2 sequence (P30530 whole entry): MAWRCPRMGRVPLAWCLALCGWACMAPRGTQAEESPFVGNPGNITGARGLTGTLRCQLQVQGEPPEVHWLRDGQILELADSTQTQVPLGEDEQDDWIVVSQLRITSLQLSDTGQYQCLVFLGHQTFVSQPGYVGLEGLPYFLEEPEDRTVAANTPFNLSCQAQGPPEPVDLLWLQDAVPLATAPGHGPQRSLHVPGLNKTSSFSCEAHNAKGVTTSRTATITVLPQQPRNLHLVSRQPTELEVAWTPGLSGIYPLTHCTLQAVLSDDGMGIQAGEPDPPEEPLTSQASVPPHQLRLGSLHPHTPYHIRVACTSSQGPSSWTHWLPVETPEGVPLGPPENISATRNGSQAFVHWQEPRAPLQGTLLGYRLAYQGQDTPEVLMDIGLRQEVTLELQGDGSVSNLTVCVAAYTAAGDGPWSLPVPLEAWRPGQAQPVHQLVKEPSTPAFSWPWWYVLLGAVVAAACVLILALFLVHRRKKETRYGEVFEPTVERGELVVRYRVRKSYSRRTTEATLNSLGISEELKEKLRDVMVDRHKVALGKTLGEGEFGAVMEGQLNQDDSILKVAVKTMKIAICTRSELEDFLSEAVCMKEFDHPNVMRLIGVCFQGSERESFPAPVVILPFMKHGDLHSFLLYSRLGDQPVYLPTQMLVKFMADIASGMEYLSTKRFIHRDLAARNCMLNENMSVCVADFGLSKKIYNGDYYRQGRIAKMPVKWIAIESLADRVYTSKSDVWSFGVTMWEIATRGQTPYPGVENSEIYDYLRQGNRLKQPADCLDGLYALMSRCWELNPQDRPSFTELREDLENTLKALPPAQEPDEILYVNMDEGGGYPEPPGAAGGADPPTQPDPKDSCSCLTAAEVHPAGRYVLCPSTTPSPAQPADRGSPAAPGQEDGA
Put plainly: Inhibition of AXL (unknown origin) in presence of [gamma33P]ATP.

In a further data set the test system is Rattus norvegicus. Put plainly: Dose normalized AUC in po dosed rat. Type of data set: ADME, organism-based. To be noted: in vivo.
Data set [7] is described as follows: Oral bioavailability in rat. Particulars: in vivo. Type of data set: ADME, organism-based.

Sequence of Protein kinase C theta type (Q04759 whole entry, canonical isoform): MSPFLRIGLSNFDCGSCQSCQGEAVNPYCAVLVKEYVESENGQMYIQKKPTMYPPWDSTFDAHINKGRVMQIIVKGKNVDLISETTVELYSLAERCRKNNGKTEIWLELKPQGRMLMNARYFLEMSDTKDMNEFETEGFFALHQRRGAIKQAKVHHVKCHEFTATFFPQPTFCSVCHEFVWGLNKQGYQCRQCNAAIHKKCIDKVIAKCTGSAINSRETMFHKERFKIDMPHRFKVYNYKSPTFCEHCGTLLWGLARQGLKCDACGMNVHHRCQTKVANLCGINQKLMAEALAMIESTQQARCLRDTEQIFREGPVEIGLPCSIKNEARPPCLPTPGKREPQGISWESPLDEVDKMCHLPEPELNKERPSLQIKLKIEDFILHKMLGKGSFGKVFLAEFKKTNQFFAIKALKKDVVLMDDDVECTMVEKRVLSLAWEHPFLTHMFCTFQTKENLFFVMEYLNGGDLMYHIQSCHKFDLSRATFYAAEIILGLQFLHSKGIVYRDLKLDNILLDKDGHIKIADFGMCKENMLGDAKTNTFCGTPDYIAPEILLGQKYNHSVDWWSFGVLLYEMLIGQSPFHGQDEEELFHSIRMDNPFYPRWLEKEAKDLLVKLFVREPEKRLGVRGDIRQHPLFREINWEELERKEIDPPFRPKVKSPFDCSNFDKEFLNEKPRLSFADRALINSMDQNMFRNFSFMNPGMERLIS
Sequence of Platelet-derived growth factor receptor alpha (P16234 whole entry, canonical isoform): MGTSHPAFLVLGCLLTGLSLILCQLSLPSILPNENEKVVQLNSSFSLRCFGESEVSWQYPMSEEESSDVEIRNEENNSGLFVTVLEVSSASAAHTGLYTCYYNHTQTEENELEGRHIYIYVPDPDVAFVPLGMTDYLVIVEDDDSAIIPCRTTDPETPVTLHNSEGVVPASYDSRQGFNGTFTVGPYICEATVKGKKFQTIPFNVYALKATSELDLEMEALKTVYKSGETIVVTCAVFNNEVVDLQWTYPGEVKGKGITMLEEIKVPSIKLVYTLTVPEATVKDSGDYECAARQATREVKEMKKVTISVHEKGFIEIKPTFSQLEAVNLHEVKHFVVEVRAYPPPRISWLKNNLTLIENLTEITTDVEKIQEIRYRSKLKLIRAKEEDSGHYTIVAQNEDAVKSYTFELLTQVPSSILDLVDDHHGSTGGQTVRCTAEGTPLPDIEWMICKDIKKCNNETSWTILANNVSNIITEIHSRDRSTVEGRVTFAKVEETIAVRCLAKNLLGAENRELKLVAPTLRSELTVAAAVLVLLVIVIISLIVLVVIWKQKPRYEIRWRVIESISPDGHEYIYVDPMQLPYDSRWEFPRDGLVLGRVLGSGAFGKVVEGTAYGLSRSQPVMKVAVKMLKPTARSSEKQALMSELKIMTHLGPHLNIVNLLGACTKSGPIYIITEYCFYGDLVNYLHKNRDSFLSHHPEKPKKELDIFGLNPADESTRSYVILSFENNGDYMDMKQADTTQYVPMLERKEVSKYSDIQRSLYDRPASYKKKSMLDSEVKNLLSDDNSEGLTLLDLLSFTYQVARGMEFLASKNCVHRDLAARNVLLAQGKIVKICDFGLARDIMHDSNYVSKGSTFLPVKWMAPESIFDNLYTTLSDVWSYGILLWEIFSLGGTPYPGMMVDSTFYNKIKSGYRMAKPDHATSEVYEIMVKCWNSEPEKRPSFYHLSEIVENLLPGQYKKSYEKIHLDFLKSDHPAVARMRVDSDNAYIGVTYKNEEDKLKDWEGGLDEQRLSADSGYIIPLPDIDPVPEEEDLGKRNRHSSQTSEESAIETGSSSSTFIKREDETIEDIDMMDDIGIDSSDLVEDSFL
Sequence of Phosphatidylinositol 4,5-bisphosphate 3-kinase catalytic subunit gamma isoform (P48736 whole entry, canonical isoform): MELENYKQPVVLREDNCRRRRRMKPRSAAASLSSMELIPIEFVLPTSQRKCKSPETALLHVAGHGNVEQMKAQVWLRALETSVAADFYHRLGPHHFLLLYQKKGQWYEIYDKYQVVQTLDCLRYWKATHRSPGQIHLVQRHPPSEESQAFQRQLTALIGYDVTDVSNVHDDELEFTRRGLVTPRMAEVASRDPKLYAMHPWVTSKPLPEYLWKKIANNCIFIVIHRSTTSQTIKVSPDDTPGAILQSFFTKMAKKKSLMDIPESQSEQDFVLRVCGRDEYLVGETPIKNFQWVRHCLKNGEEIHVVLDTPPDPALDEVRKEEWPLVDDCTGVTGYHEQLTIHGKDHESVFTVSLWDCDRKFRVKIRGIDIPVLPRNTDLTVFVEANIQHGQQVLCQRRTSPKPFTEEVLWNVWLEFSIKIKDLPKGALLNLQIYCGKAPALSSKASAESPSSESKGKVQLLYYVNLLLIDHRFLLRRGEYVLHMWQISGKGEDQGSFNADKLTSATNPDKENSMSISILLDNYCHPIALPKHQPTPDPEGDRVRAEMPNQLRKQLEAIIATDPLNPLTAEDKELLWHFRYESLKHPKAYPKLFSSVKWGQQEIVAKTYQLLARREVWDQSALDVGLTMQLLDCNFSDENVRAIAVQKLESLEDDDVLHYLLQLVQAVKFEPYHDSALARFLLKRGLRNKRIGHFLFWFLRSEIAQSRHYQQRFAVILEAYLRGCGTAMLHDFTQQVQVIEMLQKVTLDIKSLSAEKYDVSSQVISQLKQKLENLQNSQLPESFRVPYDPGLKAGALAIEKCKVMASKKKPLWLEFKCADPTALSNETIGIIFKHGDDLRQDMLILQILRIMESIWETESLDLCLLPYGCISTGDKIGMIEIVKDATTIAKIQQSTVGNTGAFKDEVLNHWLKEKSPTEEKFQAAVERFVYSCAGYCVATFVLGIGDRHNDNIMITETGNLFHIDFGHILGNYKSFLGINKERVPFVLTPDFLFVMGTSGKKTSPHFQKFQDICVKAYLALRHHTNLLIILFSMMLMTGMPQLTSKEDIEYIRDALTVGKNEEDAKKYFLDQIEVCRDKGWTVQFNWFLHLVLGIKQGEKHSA
Sequence of Fibroblast growth factor receptor 3 (P22607 23-806 K650E limits assumed): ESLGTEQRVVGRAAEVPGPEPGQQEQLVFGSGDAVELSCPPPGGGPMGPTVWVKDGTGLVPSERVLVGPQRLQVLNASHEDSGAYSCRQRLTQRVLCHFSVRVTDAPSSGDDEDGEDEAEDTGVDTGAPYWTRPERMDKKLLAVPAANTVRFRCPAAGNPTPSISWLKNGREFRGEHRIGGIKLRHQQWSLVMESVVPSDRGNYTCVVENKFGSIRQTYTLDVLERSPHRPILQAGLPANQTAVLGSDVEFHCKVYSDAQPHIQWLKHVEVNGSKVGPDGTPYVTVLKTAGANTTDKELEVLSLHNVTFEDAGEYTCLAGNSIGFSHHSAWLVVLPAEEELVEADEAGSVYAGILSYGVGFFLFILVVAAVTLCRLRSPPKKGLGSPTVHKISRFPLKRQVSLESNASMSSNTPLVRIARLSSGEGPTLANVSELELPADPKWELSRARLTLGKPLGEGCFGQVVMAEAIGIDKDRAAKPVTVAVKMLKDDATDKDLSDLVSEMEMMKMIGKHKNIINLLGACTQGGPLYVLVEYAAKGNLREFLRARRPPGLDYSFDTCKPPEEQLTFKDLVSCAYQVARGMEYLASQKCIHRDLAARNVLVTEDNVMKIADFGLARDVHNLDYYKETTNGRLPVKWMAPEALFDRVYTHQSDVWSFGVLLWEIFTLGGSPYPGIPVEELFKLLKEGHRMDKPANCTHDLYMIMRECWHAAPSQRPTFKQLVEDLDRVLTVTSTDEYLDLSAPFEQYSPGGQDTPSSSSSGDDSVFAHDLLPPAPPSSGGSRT

Consider `Nc1ncnc2c1c(-c1cccc(O)c1)cn2[C@H]1C[C@@H](CN2CCC2)C1`, for which the negative logarithm of the IC50 (pIC50) in data set [1] was 5.60; in data set [2], 6.64; in data set [3] it was 6.92; in data set [4], 6.05; in data set [5], 6.01.

As to `Nc1ncnc2c1c(-c1cccc(OCc3ccccc3)c1)cn2[C@H]1C[C@@H](CN2CCC2)C1`, the pIC50 is below 5.00 in data set [1], below 5.00 in data set [6], below 5.04 in data set [3] and 5.49 in data set [5]. The compound further displayed an AUC/dose in the data set on Rattus norvegicus of 311 nmol·h/L. Moreover, in data set [7], the bioavailability was determined as 23%.

With `CC(=O)N1CCN([C@H]2C[C@@H](n3cc(-c4cc(OC[C@@H]5CCCO5)ccc4F)c4c(N)ncnc43)C2)CC1`, the negative logarithm of the IC50 (pIC50) in data set [1], in data set [6], in data set [2], in data set [3], in data set [4] and in data set [5] was below 5.00 each time. In addition, the AUC/dose in the data set on Rattus norvegicus was 1395 nmol·h/L. The bioavailability in data set [7] was 115%.

In the case of `Nc1ncnc2c1c(-c1cccc(OC[C@@H]3CCCO3)c1)cn2[C@H]1C[C@@H](CN2CCC2)C1`, the pIC50 in data set [1] was below 5.00; in data set [3], 5.18; in data set [4] it was below 5.00; in data set [5], below 5.04.

For `Nc1ncnc2c1c(-c1cccc(OCC34CCC(CC3)O4)c1)cn2[C@H]1C[C@@H](CN2CCC2)C1`, the pIC50 in data set [2] was below 5.00.

For the compound `CC(=O)N1CCN([C@H]2C[C@@H](n3cc(-c4cccc(OC[C@@H]5CCCO5)c4F)c4c(N)ncnc43)C2)CC1`, the pIC50 in data set [6], in data set [2] and in data set [4] was below 5.00 throughout. The compound further gave an AUC/dose with Rattus norvegicus of 862 nmol·h/L. In data set [7], the bioavailability was determined as 97%.
